Earlier results in patent US20120070594A1, “HYDROGENATED BISPHENOL-A-BASED POLYMERS AS SUBSTITUTES FOR BISPHENOL-A-BASED POLYMERS” (priority 2010, published 2012).

SMILES	pKa	LD50 (rat) (rat)
CC(C)(c1ccc(O)cc1)c1ccc(O)cc1 [BPA, 4,4′-(Propane-2,2-diyl)diphenol, reference compound]	9.6	
CC(C)(C1CCC(O)CC1)C1CCC(O)CC1 (stereo not drawn) [HBPA, 4-[2-(4-hydroxycyclohexyl)propan-2-yl]cyclohexan-1-ol]	17	5660 mg per kg
